In EP0560267B1, “Isosteric antiherpes peptide derivatives” (BOEHRINGER INGELHEIM (CANADA) LTD., priority 1992, dated 1993):
Like-named read-outs stand apart in the source and are kept apart here.

Columns and labels:
[1] = molecular target: T1, HSV-1 ribonucleotide reductase (Human herpesvirus 1, UniProt P08543); assay: Inhibition of Herpes Simplex Virus (HSV-1) ribonucleotide reductase; format: biochemical
T1 construct: HSV-1 ribonucleotide reductase (partially purified) was obtained from quiescent BHK-21/C13 cells infected with strain F HSV-1 virus; made in house; host or cells: quiescent BHK-21/C13 cells infected with HSV-1 strain F (virus-encoded enzyme, partially purified)
T1 sequence (P08543 whole entry): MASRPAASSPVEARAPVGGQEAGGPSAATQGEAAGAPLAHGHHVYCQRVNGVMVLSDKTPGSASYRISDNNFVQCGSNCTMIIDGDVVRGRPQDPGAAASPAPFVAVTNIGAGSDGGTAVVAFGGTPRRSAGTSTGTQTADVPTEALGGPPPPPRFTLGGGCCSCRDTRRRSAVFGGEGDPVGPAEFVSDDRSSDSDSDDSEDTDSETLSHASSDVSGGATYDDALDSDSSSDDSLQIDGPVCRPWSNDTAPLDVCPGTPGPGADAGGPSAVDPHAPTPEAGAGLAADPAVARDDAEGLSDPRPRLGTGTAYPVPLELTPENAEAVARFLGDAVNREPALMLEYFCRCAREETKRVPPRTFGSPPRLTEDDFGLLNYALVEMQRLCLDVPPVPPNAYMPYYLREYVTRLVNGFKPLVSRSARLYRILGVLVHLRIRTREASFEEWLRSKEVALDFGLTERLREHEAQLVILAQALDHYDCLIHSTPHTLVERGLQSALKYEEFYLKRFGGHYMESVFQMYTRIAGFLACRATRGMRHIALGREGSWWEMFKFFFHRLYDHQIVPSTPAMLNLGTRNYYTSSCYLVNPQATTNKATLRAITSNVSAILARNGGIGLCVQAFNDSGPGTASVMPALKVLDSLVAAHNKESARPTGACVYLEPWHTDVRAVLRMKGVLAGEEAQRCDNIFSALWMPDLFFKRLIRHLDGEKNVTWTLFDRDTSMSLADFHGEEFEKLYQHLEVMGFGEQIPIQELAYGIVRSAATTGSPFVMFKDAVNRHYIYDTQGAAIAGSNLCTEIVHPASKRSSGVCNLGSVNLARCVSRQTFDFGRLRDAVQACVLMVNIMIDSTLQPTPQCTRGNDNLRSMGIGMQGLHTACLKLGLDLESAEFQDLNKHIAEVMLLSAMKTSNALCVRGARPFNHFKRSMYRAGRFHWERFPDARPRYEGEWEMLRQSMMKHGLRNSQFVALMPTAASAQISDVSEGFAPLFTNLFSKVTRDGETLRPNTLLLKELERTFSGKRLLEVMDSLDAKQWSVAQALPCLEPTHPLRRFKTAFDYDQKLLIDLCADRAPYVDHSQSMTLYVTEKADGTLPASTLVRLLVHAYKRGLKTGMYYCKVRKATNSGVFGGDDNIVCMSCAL
Excerpt: Inhibition of Herpes Simplex Virus (HSV-1) Ribonucleotide Reductase
• a) Preparation of Enzyme HSV-1 ribonucleotide reductase (partially purified) was obtained from quiescent BHK-21/C13 cells infected with strain F HSV-1 virus at 10 plaque forming units/cell as described by E.A. Cohen et al., J. Gen. Virol., 66, 733 (1985). • b) Assay and Results for Exemplified Peptides By following the procedure described by P. Gaudreau et al., J. Biol, Chem., 262, 12413 (1987), the assay results listed in the following Table I were obtained. The assay result for each exemplified compound of formula 1 is expressed as the concentration of the compound producing 50% of the maximal inhibition (IC50) of enzyme activity. The number of units of the enzyme preparation used in each assay was constant, based on the specific activity of the enzyme preparation. The results are relative to the activity obtained in control experiments without the test compound and represent the mean of four assays that varied less than 10% with each other.

HSV-2 = assay: Inhibition of Herpes Simplex Virus (HSV-2) replication in cell culture; format: cell-based
Description: Inhibition of Herpes Simplex Virus (HSV-2) Replication in Cell Culture
BHK-21/C13 cells (ATCC CCL 10) are incubated for two days in 150 cm^2 T-flasks (1.5 x 10^6 cells/flask) with alpha-MEM medium (Gibco Canada Inc., Burlington, Ontario, Canada) supplemented with 8% (v/v) fetal bovine serum (FBS, Gibco Canada Inc.). The cells are trypsinized and then transferred to fresh media in a 24 well plate to give 2.5 x 10^5 cells in 750 µL of media per well. The cells are incubated at 37° for a period of 6 h to allow them to adhere to the plate. Thereafter, the cells are washed once with 500 µL of alpha-MEM supplemented with 0.5% (v/v) FBS and then incubated with 750 µL of the same media (low serum) for 3 days. After this period of serum starvation, the low serum medium is removed and the cells are incubated in 500 µL of BBMT for 2 to 3 hours. {BBMT medium is described by P. Brazeau et al., Proc. Natl. Acad. Sci. USA, 79, 7909 (1982).} Thereafter, the cells are infected with HSV-2 (multiplicity of infection = 0.02 PFU/cell) in 100 µL of BBMT medium. (Note: The HSV-2 used was strain HG-52, see Y. Langelier and G. Buttin, J. Gen. Virol., 57, 21 (1981); the virus was stored at -80°.) Following 1 h of virus adsorption at 37°, the media is removed and the cells are washed with BBMT (3 X 250 µL). The cells in each well are incubated with or without (control) appropriate concentrations of the test agent dissolved in 200 µL of BBMT medium. After 29 h of incubation at 37°, the infected cells are harvested by first freezing the plate at -80°, followed by thawing. The cells in each well are scraped off the surface of the well with the help of the melting ice fragments. After complete thawing, the cell suspensions are collected and each well is rinsed with 150 µL of BBMT medium. The viral sample (suspension plus washing) is sonicated gently for 4 min at 4°. Cell debris are removed by centrifugation (1000 times gravity for 10 minutes at 4°). The supernatant is collected and stored at -80° until determination of viral titer.
Viral titration was performed by a modification of the colorimetric assay method of M. Langlois et al., Journal of Biological Standardization, 14, 201 (1986).
More specifically, in a similar manner as described above, BHK-21/C13 cells are trypsinized and transferred to fresh media in a 96 well microtiter plate to give 20,000 cells in 100 µL of media per well. The cells in the prepared plate are incubated at 37° for 2 h. During that time, the viral sample is thawed and sonicated gently for 15 seconds, and log dilutions of the sample are prepared (1/5 sequential: 50 µL of the sample plus 200 µL of BBMT medium, sequential dilutions being done with a multichannel pipette.
On completion of the above 2 hour incubation of the BHK-21/C13 cells, the media is replaced with alpha-MEM medium supplemented with 3% (v/v) FBS. The cells are now ready to be infected with the various sample dilutions of virus. Aliquots (50 µL) of the various dilutions are transferred into the appropriate wells of the plate. The resulting infected cells are incubated for 2 days at 37°. Then 50 µL of a 0.15% (v/v) solution of neutral red dye in Hank's Balanced Salt Solution (pH 7.3, Gibco Canada Inc.) is added to each well. The prepared plate is incubated for 45 min at 37°. Medium from each well is then aspirated and the cells are washed once with 200 µL of Hank's Balanced Salt Solution. […]

[2] = Human alphaherpesvirus 2, Table IV, cell culture assay of example 11, read-out: EC50
[3] = Human alphaherpesvirus 2, Table V, cell culture assay of example 11
[4] = Table I, partially purified enzyme from BHK-21/C13 cells infected with strain F HSV-1, mean of four assays
[5] = Human alphaherpesvirus 2, BHK21 (C13), 29 h, Table II, BHK-21/C13 cells, HSV-2 strain HG-52, 0.02 PFU/cell, 29 h incubation, read-out: EC50

SMILES | IC50 ([1]; Table IV, assay of example 10) [µM] | EC50 (HSV-2; [2]) [µM] | other results
CCCC(CC)(CCC)NC(=O)NC(C(=O)CC(CC(=O)C(C)(C)C)C(=O)NC(C(=O)NC(C)C(C)(C)C)C1(C(=O)O)CCCC1)C(C)(C)C [EtPr2CNHC(O) / NH-(R)-CH(Me)CMe3, EtPr2CNHC(O)-Tbg-CH2-(R)-CH(CH2C(O)CMe3)C(O)-Asp(cyPn)-NH-(R)-CH(Me)CMe3] | 0.41 | 10 | –
CCCC(CCC)NC(=O)NC(C(=O)CC(CC(=O)C(C)(C)C)C(=O)NC(C(=O)NC(C)C(C)(C)CC)C1(C(=O)O)CCCC1)C(C)(C)C [Pr2CHNHC(O)-Tbg-CH2-(R)-CH(CH2C(O)CMe3)C(O)-Asp(cyPn)-NH-(R)-CH(Me)C(Me)2Et] | 0.5 | – | EC50 (HSV-2; Human alphaherpesvirus 2, Table IV, cell culture assay of example 11): 21 µM
CCCC(CCC)NC(=O)NC(C(=O)CC(CC(=O)C(C)C)C(=O)NC(C(=O)NCC(C)(C)C)C1(C(=O)O)CCCC1)C(C)(C)C [Pr2CHNHC(O)-Tbg-CH2-(R)-CH(CH2-C(O)CHMe2)C(O)-Asp(cyPn)-NHCH2-CMe3] | – | – | IC50 ([1]; Table V, assay of example 10): 0.36 µM; EC50 (HSV-2; [3]): 39 µM
CCCC(CCC)NC(=O)NC(C(=O)CC(CC(=O)C(C)(C)C)C(=O)NC(C(=O)NCC(C)(C)CC)C1(C(=O)O)CCCC1)C(C)(C)C [Pr2CHNHC(O) / NHCH2CMe2Et, Pr2CHNHC(O)-Tbg-CH2-(R)-CH(CH2C(O)CMe3)C(O)-Asp(cyPn)-NHCH2CMe2Et] | 0.24 | 16 | –
CCCC(CCC)NC(=O)NC(C(=O)CC(CC(=O)C(C)(C)C)C(=O)NC(C(=O)NCC(C)(C)C)C1(C(=O)O)CCCC1)C(C)(C)C [Pr2CHNHC(O)-Tbg-CH2-(R)-CH(CH2C(O)-CMe3)C(O)-Asp(cyPn)-NHCH2CMe3] | – | – | IC50 [1, 4]: 0.08 µM; EC50 (HSV-2; [5]): 24 µM
CCCC(CCC)NC(=O)NC(C(=O)CC(CC(=O)C(C)(C)CC)C(=O)NC(C(=O)NCC(C)(C)C)C1(C(=O)O)CCCC1)C(C)(C)C [Pr2CHNHC(O)-Tbg-CH2-(R)-CH(CH2-C(O)CMe2Et)C(O)-Asp(cyPn)-NHCH2-CMe3] | – | – | IC50 ([1]; Table V, assay of example 10): 0.21 µM; EC50 (HSV-2; [3]): 33 µM
CCCC(CCC)NC(=O)NC(C(=O)CC(CC(=O)C(C)(C)C)C(=O)NC(C(=O)NC(C)CC(C)(C)C)C1(C(=O)O)CCCC1)C(C)(C)C [Pr2CHNHC(O) / NH-(R)-CH(Me)CH2CMe3, Pr2CHNHC(O)-Tbg-CH2-(R)-CH(CH2C(O)CMe3)C(O)-Asp(cyPn)-NH-(R)-CH(Me)CH2CMe3] | 0.37 | 14 | –
CCCC(CCC)NC(=O)NC(C(=O)CC(CC(=O)C(C)(C)C)C(=O)NC(C(=O)NC(C)C(CC)CC)C1(C(=O)O)CCCC1)C(C)(C)C [Pr2CHNHC(O) / NH-(R)-CH(Me)CHEt2, Pr2CHNHC(O)-Tbg-CH2-(R)-CH(CH2C(O)CMe3)C(O)-Asp(cyPn)-NH-(R)-CH(Me)CHEt2] | 0.33 | 16 | –
CCCC(CCC)NC(=O)NC(C(=O)CC(CC(=O)C(C)(C)C)C(=O)NC(C(=O)NC1CCCCC1(C)C)C1(C(=O)O)CCCC1)C(C)(C)C [Pr2CHNHC(O)-Tbg-CH2-(R)-CH(CH2C(O)CMe3)C(O)-Asp(cyPn)-NH-(2,2-dimethyl-cyclohexyl)] | 0.4 | 24 | –
CCCC(CCC)NC(=O)NC(C(=O)CC(CC(=O)C(C)(C)C)C(=O)NC(C(=O)NC(CO)CC(C)(C)C)C1(C(=O)O)CCCC1)C(C)(C)C [Pr2CHNHC(O)-Tbg-CH2-(R)-CH(CH2C(O)-CMe3)C(O)-Asp(cyPn)-γMeLeucinol] | – | – | IC50 [1, 4]: 0.2 µM; EC50 (HSV-2; [5]): 30 µM
CCCC(CCC)NC(=O)NC(C(=O)CC(CC(=O)C(C)(C)C)C(=O)NC(C(=O)NN(CC)C(C)(C)C)C1(C(=O)O)CCCC1)C(C)(C)C [Pr2CHNHC(O) / NHN(Et)CMe3, Pr2CHNHC(O)-Tbg-CH2-(R)-CH(CH2C(O)CMe3)C(O)-Asp(cyPn)-NHN(Et)CMe3] | 0.22 | 80 | –
CCCC(C)(CCC)NC(=O)N[C@H](C(=O)C[C@@H](CC(=O)C(C)(C)C)C(=O)N[C@H](C(=O)NCC(C)(C)C)C1(C(=O)O)CCCC1)C(C)(C)C [MePr2CNHC(O) / NHCH2CMe3, MePr2CNHC(O)-Tbg-CH2-(R)-CH(CH2C(O)CMe3)C(O)-Asp(cyPn)-NHCH2CMe3] | 0.28 | 26 | –
CCCC(CCC)NC(=O)NC(C(=O)CC(CC(=O)C(C)(C)C)C(=O)NC(C(=O)NCCC(C)(C)C)C1(C(=O)O)CCCC1)C(C)(C)C [Pr2CHNHC(O) / NHCH2CH2CMe3, Pr2CHNHC(O)-Tbg-CH2-(R)-CH(CH2C(O)CMe3)C(O)-Asp(cyPn)-NHCH2CH2CMe3] | 0.58 | 72 | –
CCCC(CCC)NC(=O)NC(C(=O)CC(CC(=O)C(C)(C)C)C(=O)NC(C(=O)NCC(C)(CC)CC)C1(C(=O)O)CCCC1)C(C)(C)C [Pr2CHNHC(O) / NHCH2CEt2Me, Pr2CHNHC(O)-Tbg-CH2-(R)-CH(CH2C(O)CMe3)C(O)-Asp(cyPn)-NHCH2CEt2Me] | 0.34 | 18 | –
CCCC(CCC)NC(=O)NC(C(=O)CC(CC(=O)C1CCC1)C(=O)NC(C(=O)NCC(C)(C)C)C1(C(=O)O)CCCC1)C(C)(C)C [Pr2CHNHC(O)-Tbg-CH2-(R)-CH{CH2-C(O)-(cyclobutyl)}C(O)-Asp(cyPn)-NHCH2CMe3] | – | – | IC50 ([1]; Table V, assay of example 10): 0.31 µM; EC50 (HSV-2; Human alphaherpesvirus 2): 46 µM
CCCC(CCC)NC(=O)NC(C(=O)CC(CC(=O)C(C)(C)C)C(=O)NC(C(=O)NCC(C)CC)C1(C(=O)O)CCCC1)C(C)(C)C [Pr2CHNHC(O) / NHCH2-(R,S)-CH(Me)Et, Pr2CHNHC(O)-Tbg-CH2-(R)-CH(CH2C(O)CMe3)C(O)-Asp(cyPn)-NHCH2-(R,S)-CH(Me)Et] | 0.29 | 50 | –
CCCC(CCC)NC(=O)NC(C(=O)CC(CC(=O)C(C)(C)C)C(=O)NC(C(=O)NCC(C)(C)CCC)C1(C(=O)O)CCCC1)C(C)(C)C [Pr2CHNHC(O) / NHCH2CMe2Pr, Pr2CHNHC(O)-Tbg-CH2-(R)-CH(CH2C(O)CMe3)C(O)-Asp(cyPn)-NHCH2CMe2Pr] | 0.42 | 35 | –
CCCC(CC)NC(=O)NC(C(=O)CC(CC(=O)C(C)(C)C)C(=O)NC(C(=O)NCC(C)(C)C)C1(C(=O)O)CCCC1)C(C)(C)C [(R,S)-EtPrCH-NHC(O) / NHCH2CMe3, (R,S)-EtPrCH-NHC(O)-Tbg-CH2-(R)-CH(CH2C(O)CMe3)C(O)-Asp(cyPn)-NHCH2CMe3] | 0.23 | 35 | –
